The nature of this data set: Acute toxicity test (LD50) in mice. Particulars: mouse, in vivo. As for the experimental part:
4-(3-tert.-Butylamino-2-hydroxypropoxy)-2-methyl-1-isoquinolinone hydrochloride and 4-(3-tert.-butylamino-2-hydroxypropoxy)-1-isoquinolinonehydrochloride, respectively were administered to mice to determine the LD50 value.

Structures can show the parent of a compound that is named as a salt.

The LD50 is the dose expected to kill half of the subjects tested. With `Cl.Cn1cc(OCC(O)CNC(C)(C)C)c2ccccc2c1=O` (centres unmarked) [4-(3-tert.-butylamino-2-hydroxypropoxy)-2-methyl-1-isoquinolinone hydrochloride], the LD50 runs as follows: (ip, intraperitoneal, female) 557 mg/kg; (ip, intraperitoneal, male) 578 mg/kg; (po, female) 1290 mg/kg; (po, male) 1390 mg/kg.
The like results for `CC(C)(C)NCC(O)COc1c[nH]c(=O)c2ccccc12` (centres unmarked) [4-(3-tert.-butylamino-2-hydroxypropoxy)-1-isoquinolinonehydrochloride] were, in that order, 367 mg/kg, 382 mg/kg, 2470 mg/kg and 2810 mg/kg.
